Holding throughout (assay type): in vivo
What all share (parameters): key: 5: completely killed; 4: seriously injured; 3: considerably injured; 2: somewhat injured; 1: slightly injured; 0: not injured (normally grown)
Common to all, as to settings: 4 weeks after treatment

Data set [1] relates to mehishiba (henry crabgrass, Digitaria cliaris). The experiment in a line: Experiment 2 foliage treatment: mehishiba. The method in brief: (§1)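 Plants at the two- or three-leaved seedling stage, grown in cultivated soil in pots, were sprayed over the foliage with test compound as a suspended wettable powder. Pots were then held in a glass chamber for 4 weeks before herbicidal effect was scored, using the same evaluation as Experiment 1.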

In another data set the test system is rice. The experiment in a line: Experiment 2 foliage treatment: rice. The method, boiled down:
as §1

The next data set relates to paddy rice. The experiment in a line: Experiment 1 flooded soil treatment: injury to paddy rice. An excerpt: (§2) Paddy soil (clay loam) was put into a pot so as to have a surface area of 1/15500 ares. Uniformly mixed seeds of several kinds of weeds, viz., nobie (barnyardgrass, Echinochloa spp.), broad-leaved weeds, hotarui (bulrush, Scirpus juncoides) and tamagayatsuri (small-flowered umbrellaplant, Cyperus difformis), were sown in the surface layer of the soil in each pot, and then paddy rice seedlings at the two- or three-leaved stage were transplanted into each pot to a depth of 2 cm, and water was fed into each pot so as to provide a 3 cm deep water layer on the soil surface. After 3 days, in other words at the initial stage of germination of nobie (barnyardgrass, Echinochloa spp.), a predetermined amount of a selected compound obtained in a manner analogous to Example 8 in the form of diluted aqueous solution was dropped into the water layer in each pot. After that, the pots were kept in a glass chamber to allow the paddy rice and the weeds to grow, and after the lapse of 4 weeks from the treatment with the selected compounds, the herbicidal effects and the degree of injury to the paddy rice were evaluated. In the table, the herbicidal effects and the degree of injury to the paddy rice are indicated by numerical values, which have the following meaning.
(§3) 0: not injured (normally grown)

A further data set concerns garden radish. The experiment in a line: Experiment 2 foliage treatment: garden radish. The method, boiled down: as §1
For data set [2], the system named is noasagao (blue morningglory, Ipomoea indica). Nature of the data set: Experiment 3 foliage treatment: noasagao. On the procedure: (§4) Upon seedling stage (two- or three-leaved stage) of ichibi (velvetleaf, Abutilon theophrasti), onamomi (heartleaf cocklebur, Xanthium strumarium) (4L stage), noasagao (blue morningglory, Ipomoea indica) and ooinutade (pale smartweed, Persicaria lapathifolia) which were grown on a cultivated soil put in pots of 1/8850 ares, a selected compound obtained in a manner analogous to Example 8, in suspended wettable powder, was sprayed to each plant. After that, the pots were kept in a glass chamber to allow each plant to grow, and after the lapse of 4 weeks from the treatment with the selected compounds the herbicidal effects were evaluated. The evaluation of the herbicidal effects was similarly conducted as to that of Experiment 1.

Data set [3] relates to hotarui (bulrush, Scirpus juncoides). Nature of the data set: Experiment 1 flooded soil treatment: hotarui.
Description: as §2, §3

Data set [4] relates to nobie (barnyardgrass, Echinochloa spp.). The experiment in a line: Experiment 1 flooded soil treatment: nobie.
Description: as §2, §3

The subject of data set [5] is aobiyu (slender amaranth, Amaranthus viridis). The experiment in a line: Experiment 2 foliage treatment: aobiyu. The method, boiled down:
as §1

Data set [6] has as its system tamagayatsuri (small-flowered umbrellaplant, Cyperus difformis). Nature of the data set: Experiment 1 flooded soil treatment: tamagayatsuri.
Description: as §2, §3

In a further data set the test system is broad-leaved weeds. Nature of the data set: Experiment 1 flooded soil treatment: broad-leaved weeds.
Description: as §2, §3

In data set [7] the test system is ichibi (velvetleaf, Abutilon theophrasti). The experiment in a line: Experiment 3 foliage treatment: ichibi. On the procedure: as §4
Data set [8] has as its system cockspur (Panicum crus-galli). Nature of the data set: Experiment 2 foliage treatment: cockspur. The method in brief: as §1
The test system of data set [9] is ooinutade (pale smartweed, Persicaria lapathifolia). Nature of the data set: Experiment 3 foliage treatment: ooinutade. The method, then: as §4
In data set [10] the test system is onamomi (heartleaf cocklebur, Xanthium strumarium). The experiment in a line: Experiment 3 foliage treatment: onamomi. The method, then:
as §4

Take `COC(=O)C1=C(C(=O)N(C(C)=O)c2cc(SC(C)C(=O)OC)c(Cl)cc2F)CCCC1` (centres unmarked) [compound 20, N-acetyl-N-[4-chloro-2-fluoro-5-(1-methoxycarbonylethylthio)phenyl]-3,4,5,6-tetrahydrophthalamic acid methyl ester]: the “Herbicidal Effect mehishiba” value in data set [1] (40 g/10a) and in data set [1] (80 g/10a) was 1 throughout. Besides, the “Herbicidal Effect rice” value in the data set on rice (40 g/10a) and in the data set with rice (80 g/10a) was 1 each time. Further, the “Injury of Paddy” value in the data set with paddy rice (12.5 g/10a) and in the data set on paddy rice (25 g/10a) was 0.5 throughout. Moreover, the “Herbicidal Effect garden radish” value in the data set on garden radish (40 g/10a) and in the data set with garden radish (80 g/10a) was 5 each time. For the same compound, the entries for the “Herbicidal Effect noasagao” value in data set [2] (4 g/10a) and in data set [2] (8 g/10a) were 4 and 5, respectively. Also, the “Herbicidal Effect hotarui” value in data set [3] (12.5 g/10a) and in [3] (25 g/10a) was 5 each time. Besides, the “Herbicidal Effect nobie” value in data set [4] (12.5 g/10a) and in [4] (25 g/10a) was 5 throughout. Moreover, the “Herbicidal Effect aobiyu” value in data set [5] (40 g/10a) and in [5] (80 g/10a) was 5 in each case. Moreover, the “Herbicidal Effect tamagayatsuri” value in [6] (12.5 g/10a) and in data set [6] (25 g/10a) was 5 throughout. For the same compound, the “Herbicidal Effect broad-leaved weed” value in the data set with broad-leaved weeds (12.5 g/10a) and in the data set with broad-leaved weeds (25 g/10a) was 5 throughout. In addition, the “Herbicidal Effect ichibi” value in data set [7] (4 g/10a) and in [7] (8 g/10a) was 5 in each case. In addition, the “Herbicidal Effect cockspur” value in [8] (40 g/10a) and in data set [8] (80 g/10a) was 2 each time. In addition, the “Herbicidal Effect ooinutade” value in data set [9] (4 g/10a) and in [9] (8 g/10a) was 5 each time. For the same compound, the “Herbicidal Effect onamomi” value in data set [10] (4 g/10a) and in data set [10] (8 g/10a) was 4 throughout.
On to `CCCCOC(=O)C1=C(C(=O)N(C(=O)CC)c2cc(SCC(=O)OC)c(Cl)cc2F)CCCC1` [compound 35], for which the “Herbicidal Effect mehishiba” value in data set [1] (40 g/10a) and in [1] (80 g/10a) was 1 each time. For the same compound, the “Herbicidal Effect rice” value with rice (40 g/10a) and in the data set on rice (80 g/10a) was 1 throughout. In addition, the “Herbicidal Effect garden radish” value with garden radish (40 g/10a) and in the data set with garden radish (80 g/10a) was 5 each time. In addition, the results for the “Herbicidal Effect noasagao” value in data set [2] (4 g/10a) and in data set [2] (8 g/10a) were 4 and 5, respectively. In addition, the “Herbicidal Effect aobiyu” value in data set [5] (40 g/10a) and in data set [5] (80 g/10a) was 5 each time. For the same compound, the “Herbicidal Effect ichibi” value in data set [7] (4 g/10a) and in data set [7] (8 g/10a) was 5 in each case. Further, the “Herbicidal Effect cockspur” value turned out to be 1 in [8] (40 g/10a) and 2 in data set [8] (80 g/10a). The “Herbicidal Effect ooinutade” value in data set [9] (4 g/10a) and in data set [9] (8 g/10a) was 5 in each case. The “Herbicidal Effect onamomi” value in data set [10] (4 g/10a) and in [10] (8 g/10a) was 4 in each case.
`CCOC(=O)C1=C(C(=O)N(C(=O)CC)c2cc(SCC(=O)OC)c(Cl)cc2F)CCCC1` [compound 33]: the “Herbicidal Effect mehishiba” value in data set [1] (40 g/10a) and in [1] (80 g/10a) was 1 throughout. In addition, the “Herbicidal Effect rice” value with rice (40 g/10a) and with rice (80 g/10a) was 1 each time. For the same compound, the “Herbicidal Effect garden radish” value with garden radish (40 g/10a) and with garden radish (80 g/10a) was 5 in each case. The “Herbicidal Effect noasagao” value in data set [2] (4 g/10a) is on record as 4; in data set [2] (8 g/10a) it was 5. Also, the “Herbicidal Effect aobiyu” value in data set [5] (40 g/10a) and in [5] (80 g/10a) was 5 in each case. For the same compound, the “Herbicidal Effect ichibi” value in data set [7] (4 g/10a) and in data set [7] (8 g/10a) was 5 throughout. Moreover, the “Herbicidal Effect cockspur” value in data set [8] (40 g/10a) and in [8] (80 g/10a) was 1 in each case. The “Herbicidal Effect ooinutade” value in [9] (4 g/10a) and in data set [9] (8 g/10a) was 5 each time. In addition, the “Herbicidal Effect onamomi” value in [10] (4 g/10a) and in data set [10] (8 g/10a) was 5 each time.
`CCCOC(=O)C1=C(C(=O)N(C(C)=O)c2cc(SCC(=O)OC)c(Cl)cc2F)CCCC1` [compound 13]: the “Herbicidal Effect mehishiba” value in data set [1] (40 g/10a) and in [1] (80 g/10a) was 1 throughout. Further, the “Herbicidal Effect rice” value with rice (40 g/10a) and in the data set on rice (80 g/10a) was 1 each time. In addition, the “Injury of Paddy” value in the data set on paddy rice (12.5 g/10a) is 0; in the data set with paddy rice (25 g/10a) it was 0.5. Moreover, the “Herbicidal Effect garden radish” value in the data set on garden radish (40 g/10a) and in the data set on garden radish (80 g/10a) was 5 in each case. For the same compound, the “Herbicidal Effect noasagao” value in [2] (4 g/10a) and in data set [2] (8 g/10a) was 5 each time. Further, the “Herbicidal Effect hotarui” value in data set [3] (12.5 g/10a) and in data set [3] (25 g/10a) was 4 in each case. Also, the “Herbicidal Effect nobie” value in data set [4] (12.5 g/10a) and in data set [4] (25 g/10a) was 5 each time. Further, the “Herbicidal Effect aobiyu” value in [5] (40 g/10a) and in [5] (80 g/10a) was 5 throughout. The “Herbicidal Effect tamagayatsuri” value in data set [6] (12.5 g/10a) and in data set [6] (25 g/10a) was 5 throughout. Besides, the “Herbicidal Effect broad-leaved weed” value in the data set on broad-leaved weeds (12.5 g/10a) and with broad-leaved weeds (25 g/10a) was 5 each time. Moreover, the “Herbicidal Effect ichibi” value in [7] (4 g/10a) and in data set [7] (8 g/10a) was 5 in each case. In addition, the “Herbicidal Effect cockspur” value in data set [8] (40 g/10a) and in data set [8] (80 g/10a) was 2 each time. Besides, the “Herbicidal Effect ooinutade” value in data set [9] (4 g/10a) and in data set [9] (8 g/10a) was 5 in each case. Also, the “Herbicidal Effect onamomi” value in [10] (4 g/10a) and in data set [10] (8 g/10a) was 5 each time.

(Values after US6337417B1, “N-phenyltetrahydrophthalamic acid derivatives, methods of producing same, and herbicides containing same as effective components” (Central Glass Co., Ltd., priority 1994, dated 2002).)
